In EPA's CvTdb concentration-time database:

How the values were obtained:
Rat [1] = assay: concentration in plasma after dosing; settings: dosed: Phenolphthalein, 25 mg/kg, iv, Female, F344
Rat [2] = assay: concentration in plasma after dosing; settings: 16 h; dosed: Phenolphthalein; 25 mg/kg; iv; Female; F344
Rat [3] = assay: concentration in plasma after dosing; settings: 4 h; dosed: Phenolphthalein; 25 mg/kg; iv; Male; F344
Rat [4] = assay: concentration in plasma after dosing; settings: 16 h; dosed: Phenolphthalein; 25 mg/kg; iv; Female; F344; remark: listed apart in the source
Rat [5] = assay: concentration in plasma after dosing; settings: 5 h; dosed: Phenolphthalein; 25 mg/kg; iv; Male; F344
Rat [6] = assay: concentration in plasma after dosing; settings: 5 min; dosed: Phenolphthalein; 25 mg/kg; iv; Male; F344
Rat [7] = assay: concentration in plasma after dosing; settings: dosed: Phenolphthalein, 25 mg/kg, iv, Female, F344; remark: listed apart in the source
Rat [8] = assay: concentration in plasma after dosing; settings: dosed: Phenolphthalein, 25 mg/kg, iv, Female, F344; remark: listed apart in the source
Rat [9] = assay: concentration in plasma after dosing; settings: 5 min; dosed: Phenolphthalein; 25 mg/kg; iv; Male; F344; remark: listed apart in the source
Rat [10] = assay: concentration in plasma after dosing; settings: dosed: Phenolphthalein, 25 mg/kg, iv, Female, F344; remark: listed apart in the source
Rat [11] = assay: concentration in plasma after dosing; settings: dosed: Phenolphthalein, 25 mg/kg, iv, Female, F344; remark: listed apart in the source
Rat [12] = assay: concentration in plasma after dosing; settings: dosed: Phenolphthalein, 25 mg/kg, iv, Female, F344; remark: listed apart in the source
Rat [13] = assay: concentration in plasma after dosing; settings: dosed: Phenolphthalein, 25 mg/kg, iv, Male, F344
Rat [14] = assay: concentration in plasma after dosing; settings: dosed: Phenolphthalein, 25 mg/kg, iv, Female, F344; remark: listed apart in the source
Rat [15] = assay: concentration in plasma after dosing; settings: 1 h; dosed: Phenolphthalein; 25 mg/kg; iv; Male; F344
Rat [16] = assay: concentration in plasma after dosing; settings: dosed: Phenolphthalein, 25 mg/kg, iv, Female, F344; remark: listed apart in the source
Rat [17] = assay: concentration in plasma after dosing; settings: F344
Rat [18] = assay: concentration in plasma after dosing; settings: dosed: Phenolphthalein, 25 mg/kg, iv, Male, F344; remark: listed apart in the source
Rat [19] = assay: concentration in plasma after dosing; settings: 2.5 min; dosed: Phenolphthalein; 25 mg/kg; iv; Male; F344
Rat [20] = assay: concentration in plasma after dosing; settings: dosed: Phenolphthalein, 25 mg/kg, iv, Female, F344; remark: listed apart in the source
Rat [21] = assay: concentration in plasma after dosing; settings: dosed: Phenolphthalein, 25 mg/kg, iv, Female, F344; remark: listed apart in the source
Rat [22] = assay: concentration in plasma after dosing; settings: dosed: Phenolphthalein, 25 mg/kg, iv, Female, F344; remark: listed apart in the source
Rat [23] = assay: concentration in plasma after dosing; settings: dosed: Phenolphthalein, 25 mg/kg, iv, Female, F344; remark: listed apart in the source
Rat [24] = assay: concentration in plasma after dosing; settings: dosed: Phenolphthalein, 25 mg/kg, iv, Male, F344; remark: listed apart in the source
Rat [25] = assay: concentration in plasma after dosing; settings: 3 h; dosed: Phenolphthalein; 25 mg/kg; iv; Male; F344
Rat [26] = assay: concentration in plasma after dosing; settings: 5 h; dosed: Phenolphthalein; 25 mg/kg; iv; Male; F344; remark: listed apart in the source
Rat [27] = assay: concentration in plasma after dosing; settings: dosed: Phenolphthalein, 25 mg/kg, iv, Female, F344; remark: listed apart in the source
Rat [28] = assay: concentration in plasma after dosing; settings: dosed: Phenolphthalein, 25 mg/kg, iv, Male, F344; remark: listed apart in the source
Rat [29] = assay: concentration in plasma after dosing; settings: dosed: Phenolphthalein, 25 mg/kg, iv, Female, F344; remark: listed apart in the source
Rat [30] = assay: concentration in plasma after dosing; settings: 2.5 min; dosed: Phenolphthalein; 25 mg/kg; iv; Male; F344; remark: listed apart in the source
Rat [31] = assay: concentration in plasma after dosing; settings: 3 h; dosed: Phenolphthalein; 25 mg/kg; iv; Male; F344; remark: listed apart in the source
Rat [32] = assay: concentration in adipose after dosing; settings: oral, Female, F344
Rat [33] = assay: concentration in adipose after dosing; settings: 144 h; dosed: Tamoxifen; 300 ug/mL; oral; Female; F344
Rat [34] = assay: concentration in adipose after dosing; settings: 72 h; dosed: Tamoxifen citrate; 100 ug/mL; oral; Female; F344
Rat [35] = assay: concentration in adipose after dosing; settings: 144 h; dosed: Tamoxifen citrate; 300 ug/mL; oral; Female; F344
Rat [36] = assay: concentration in adipose after dosing; settings: 144 h; dosed: Tamoxifen citrate; 300 ug/mL; oral; Female; F344; remark: listed apart in the source
Rat [37] = assay: concentration in adipose after dosing; settings: 144 h; dosed: Tamoxifen citrate; 300 ug/mL; oral; Female; F344; remark: listed apart in the source
Rat [38] = assay: concentration in adipose after dosing; settings: 144 h; dosed: Tamoxifen; 300 ug/mL; oral; Female; F344; remark: listed apart in the source
Rat [39] = assay: concentration in adipose after dosing; settings: 144 h; dosed: Tamoxifen citrate; 100 ug/mL; oral; Female; F344
Rat [40] = assay: concentration in adipose after dosing; settings: 144 h; dosed: Tamoxifen citrate; 100 ug/mL; oral; Female; F344; remark: listed apart in the source
Rat [41] = assay: concentration in adipose after dosing; settings: 144 h; dosed: Tamoxifen; 300 ug/mL; oral; Female; F344; remark: listed apart in the source

O=C1OC(c2ccc(O)cc2)(c2ccc(O)cc2)c2ccccc21 [Phenolphthalein]
Settings	concentration in plasma [ng/mL]
Rat [1], 3 h	336
Rat [1], 12 h	96
Rat [7], 4 h	127
Rat [7], 7 h	36.5
Rat [8], 5 min	5180
Rat [8], 24 h	69.4
Rat [10], 5 h	56.9
Rat [10], 10 h	70.2
Rat [11], 5 min	52100
Rat [11], 24 h	23
Rat [12], 2.5 min	164000
Rat [12], 20 h	22
Rat [13], 2 h	662
Rat [13], 8 h	83.6
Rat [14], 2.5 min	167000
Rat [14], 20 h	17.4
Rat [16], 4 h	47.5
Rat [16], 7 h	15.5
Rat [18], 2 h	636
Rat [18], 8 h	110
Rat [20], 1 h	841
Rat [20], 6 h	290
Rat [21], 2 h	261
Rat [21], 8 h	46.7
Rat [22], 2 h	261
Rat [22], 8 h	43.2
Rat [23], 5 h	58.5
Rat [23], 10 h	17.4
Rat [24], 4 h	366
Rat [24], 7 h	63
Rat [27], 1 h	1400
Rat [27], 6 h	392
Rat [28], 1 h	2380
Rat [28], 6 h	199
Rat [29], 3 h	153
Rat [29], 12 h	26.7

Settings	concentration in plasma [ng/mL]
Rat [2]	20.3
Rat [3]	25.1
Rat [4]	24.5
Rat [5]	552
Rat [6]	58500
Rat [9]	58300
Rat [15]	1990
Rat [19]	219000
Rat [25]	561
Rat [26]	19.1
Rat [30]	216000
Rat [31]	94.5

concentration in plasma [ng/mL], Rat [17], dosed: Phenolphthalein, 25 mg/kg, iv
Settings	Female	Male
1 h	1090	1790
2 h	259	592
2.5 min	115000	195000
3 h	290	43.2
4 h	173	317
5 h	105	691
5 min	52300	51000
6 h	89.9	59.4
7 h	56.9	248
8 h	32.4	274
10 h	45.5	42.3
12 h	98.5	–
16 h	120	20.2
20 h	18.6	–
24 h	60.2	–

CC/C(=C(/c1ccc(O)cc1)c1ccc(OCCN(C)C)cc1)c1ccccc1 [trans-4-Hydroxytamoxifen]
concentration in adipose [ng/g], Rat [32]
Settings	72 h	144 h
dosed: Tamoxifen citrate, 100 ug/mL	8.8	4.35
dosed: Tamoxifen citrate, 300 ug/mL	–	2.96
dosed: Tamoxifen, 300 ug/mL	–	2.96

Settings	concentration in adipose [ng/g]
Rat [33]	10.3
Rat [34]	5.3
Rat [35]	5.1
Rat [36]	10.3
Rat [37]	9.08
Rat [38]	9.08
Rat [39]	6.12
Rat [40]	5.04
Rat [41]	5.1

Rat [17], 72 h, 300 ug/mL, oral, Female
Settings	concentration in plasma [ng/mL]
dosed: Tamoxifen	1.87
dosed: Tamoxifen citrate	1.87
